# In the supplement of paper PMC10307832:
# Assays:
# Experiment in all cases: relative viability (nuclei count vs DMSO), 5 days (fraction); higher = more cells survive
# Nelarabine + Alpelisib = compound: COc1nc(N)nc2c1ncn2[C@@H]1O[C@H](CO)[C@@H](O)[C@@H]1O [Nelarabine] + Cc1nc(NC(=O)N2CCC[C@H]2C(N)=O)sc1-c1ccnc(C(C)(C)C(F)(F)F)c1 [Alpelisib] (partner 2 µM)
# Method in brief: (§1)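 Lung cancer cell lines were seeded in 1536-well plates and dosed by pin tool the next day, with either a single drug or a fixed anchor-drug dose combined with five library-drug doses (not always all listed) spaced in √10 steps. Five days later, one step fixed the cells and stained their nuclei (final 0.05% Triton X-100, 1% formaldehyde, 1 ug/ml Hoechst), and nuclei were counted on 4× images. Relative viability is the nuclei count in treated wells divided by the count in vehicle wells, and each value is the median of duplicate plates.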
# Nelarabine + Phenformin = compound: COc1nc(N)nc2c1ncn2[C@@H]1O[C@H](CO)[C@@H](O)[C@@H]1O [Nelarabine] + N=C(N)NC(=N)NCCc1ccccc1 [Phenformin] (partner 250 µM)
# Method in brief: as §1
# Nelarabine + Tozasertib = compound: COc1nc(N)nc2c1ncn2[C@@H]1O[C@H](CO)[C@@H](O)[C@@H]1O [Nelarabine] + Cc1cc(Nc2cc(N3CCN(C)CC3)nc(Sc3ccc(NC(=O)C4CC4)cc3)n2)n[nH]1 [Tozasertib] (partner 0.1 µM)
# Method in brief: as §1
# Nelarabine + Palbociclib = compound: COc1nc(N)nc2c1ncn2[C@@H]1O[C@H](CO)[C@@H](O)[C@@H]1O [Nelarabine] + CC(=O)c1c(C)c2cnc(Nc3ccc(N4CCNCC4)cn3)nc2n(C2CCCC2)c1=O [Palbociclib] (partner 0.5 µM)
# Method in brief: as §1
Cell Line,relative viability (Nelarabine + Alpelisib; first compound 0.01 µM),relative viability (Nelarabine + Alpelisib; first compound 0.03162 µM),relative viability (Nelarabine + Alpelisib; first compound 0.1 µM),relative viability (Nelarabine + Alpelisib; first compound 0.3162 µM),relative viability (Nelarabine + Alpelisib; first compound 1 µM),relative viability (Nelarabine + Phenformin; first compound 0.01 µM),relative viability (Nelarabine + Phenformin; first compound 0.03162 µM),relative viability (Nelarabine + Phenformin; first compound 0.1 µM),relative viability (Nelarabine + Phenformin; first compound 0.3162 µM),relative viability (Nelarabine + Phenformin; first compound 1 µM),relative viability (Nelarabine + Tozasertib; first compound 0.01 µM),relative viability (Nelarabine + Tozasertib; first compound 0.03162 µM),relative viability (Nelarabine + Tozasertib; first compound 0.1 µM),relative viability (Nelarabine + Tozasertib; first compound 0.3162 µM),relative viability (Nelarabine + Tozasertib; first compound 1 µM),relative viability (Nelarabine + Palbociclib; first compound 0.01 µM),relative viability (Nelarabine + Palbociclib; first compound 0.03162 µM),relative viability (Nelarabine + Palbociclib; first compound 0.1 µM),relative viability (Nelarabine + Palbociclib; first compound 0.3162 µM),relative viability (Nelarabine + Palbociclib; first compound 1 µM)
NCI-H1734,0.746,0.67,0.709,0.653,0.704,0.446,0.388,0.412,0.366,0.38,0.305,0.253,0.253,0.257,0.292,0.387,0.305,0.334,0.368,0.326
NCI-H1755,1.13,0.879,0.984,1.15,1.08,0.63,0.548,0.547,0.659,0.619,0.683,0.524,0.561,0.645,0.557,0.462,0.464,0.462,0.463,0.453
NCI-H1793,0.748,0.736,0.625,0.68,0.693,0.45,0.366,0.315,0.472,0.406,0.316,0.317,0.328,0.327,0.352,0.353,–,0.316,0.398,0.318
NCI-H1915,1.2,1.05,1.11,1.07,1.06,0.378,0.315,0.367,0.371,0.367,0.576,0.417,0.633,0.475,0.459,0.598,0.531,0.533,0.522,0.525
NCI-H1944,0.817,0.78,0.828,0.814,0.79,0.209,0.195,0.229,0.195,0.203,0.285,0.239,0.252,0.27,0.253,0.367,0.267,0.343,0.362,0.316
NCI-H1975,0.785,0.489,0.73,0.773,0.764,0.472,0.389,0.4,0.399,0.432,0.69,0.689,1.05,0.911,0.926,0.656,0.526,0.747,0.726,0.649
NCI-H1993,0.704,0.736,0.756,0.712,0.689,0.527,0.486,0.448,0.499,0.503,0.662,0.553,0.623,0.586,0.571,0.721,0.516,0.692,0.547,0.647
NCI-H2009,1.25,1.32,1.15,1.2,1.14,0.555,0.518,0.479,0.532,0.47,0.893,0.748,0.742,0.812,0.752,0.194,0.206,0.203,0.161,0.192
NCI-H2023,0.634,0.769,0.559,0.594,0.55,0.395,0.357,0.4,0.371,0.371,0.416,0.41,0.39,0.33,0.422,0.321,0.369,0.348,0.336,0.302
NCI-H2085,1.06,0.992,0.94,1.01,1.02,0.73,0.703,0.669,0.69,0.767,0.847,0.914,0.733,0.882,0.736,0.479,0.437,0.479,0.459,0.431
NCI-H2087,1.19,1.13,0.986,0.969,1.07,0.577,0.408,0.397,0.457,0.569,0.303,0.24,0.22,0.19,0.245,0.251,0.189,0.268,0.198,0.192
NCI-H2126,0.875,0.81,0.779,0.744,0.774,0.593,0.545,0.51,0.508,0.517,0.968,0.864,0.779,0.809,0.824,0.347,0.352,0.326,0.353,0.403
NCI-H2170,0.944,0.748,0.81,0.882,0.937,0.393,0.39,0.388,0.421,0.383,0.81,0.689,0.767,0.88,0.73,0.438,0.337,0.385,0.395,0.405
NCI-H2228,0.882,0.595,–,0.815,0.676,0.434,0.244,–,0.345,0.293,0.226,0.163,–,0.245,0.214,1.04,0.538,0.599,0.937,0.792
NCI-H2347,1.01,1.13,1.14,1.04,1.14,0.45,0.574,0.379,0.445,0.381,0.659,0.443,0.523,0.565,0.225,0.407,0.37,0.42,0.402,0.481
NCI-H2405,0.842,0.794,0.74,0.647,0.801,0.385,0.395,0.357,0.383,0.26,0.805,0.682,0.663,0.73,0.67,0.495,0.48,0.516,0.529,0.51
